Results from paper PMC12164071, “Lysine targeting covalent inhibitors of malarial kinase PfCLK3” (RSC Medicinal Chemistry, 2025).
Several values for one entry are separate records, joined by “and”; a condition that tells them apart may be missing. Equal values may be shown once. Entries after “also recorded” stand apart in the source; their conditions may differ. Read-outs that look alike come from different tables or passages of the source.

How the values were obtained:
[1] = tested on: 3D7 Plasmodium falciparum parasites; test: Ex vivo P. falciparum (3D7) inhibition assay; format: cell-based; details: 3D7, Pf3D7 parasites, 72 hours, errors SD
Method: Compounds 4, 5, 8 and 9 were then assessed against 3D7 Plasmodium falciparum parasites (Fig. 6). […]
P. falciparum (3D7) culture and synchronisation.
P. falciparum cultures were maintained in RPMI-1640 media (Invitrogen) supplemented with 0.2% sodium bicarbonate, 0.5% Albumax II, 2.0 mM L-glutamine (Sigma) and 10 mg/L gentamycin. For continuous culture, the parasites were maintained at 4% haematocrit in human erythrocytes from 0+ blood donors and between 0.5 - 3% parasitaemia in an incubator at 37 °C, 5% carbon dioxide (CO 2), 5% oxygen (O 2) and 90% nitrogen (N 2). To obtain highly synchronous ring stage parasites for assays, cultures were double synchronised using Percoll and Sorbitol synchronisation. First, highly segmented schizonts were enriched by centrifugation on a 70% Percoll (GE Healthcare) cushion gradient. The Schizont pellet was collected and washed twice before fresh erythrocytes were added to a final haematocrit of 4%, and incubated for about 1-2 hours shaking continuously to allow merozoites egress and re-invasion of new erythrocytes. Residual schizonts were then removed by a second Percoll purification followed by treating the ring pellet with sorbitol to generate highly synchronous 1-2 hours old ring-stage parasites.
Ex vivo P. Falciparum (3D7) inhibition assay.
To determine the IC 50 of the molecules in parasites (P. falciparum 3D7) ex vivo, the molecules were diluted 1 in 3 from a starting concentration of 100 μM for 12 dilution points in triplicate. 50 μL of freshly diluted drugs, at twice the required final concentrations were aliquoted into black 96-well plates. To the compound plates, 50 μL of parasites prepared at 8% haematocrit at a parasitaemia (0.3 - 0.5%) were added and mixed by pipetting up and down several times giving a final culture volume of 100 μL at the required compound concentration (top concentration of 100 μM) and 4% haematocrit. To the ‘no compound’ control, growth media was added and uninfected erythrocytes were included on the plate as blank. The outer wells were filled with media to reduce evaporation from the experimental wells and the plates incubated for 72 hours (±2 hours) to allow the parasites sufficient time to re-invade before they are collected and frozen. For cellular washout studies, compound media was exchanged for compound-free media after 6 hours, and the parasites incubated for a […]

[2] = tested on: PfCLK3 kinase domain (amino acid residues 334–699); test: Intact protein LC-MS for covalent adduct formation; format: binding, Plasmodium falciparum; details: for covalent adduct formation with PfCLK3 kinase domain: pH 7.4, 1:5 protein to compound ratio
Method: All compounds were then evaluated for covalent binding with PfCLK3 kinase domain (amino acid residues 334–699) using intact protein LC-MS (Fig. 3). Compounds were incubated at pH 7.4 in a 1 : 5 protein to compound ratio and analysed for covalent adduct formation using ESI TOF. […] Compounds 8 and 9 yielded a fully modified species at 43 957 Da, which can be attributed to the mass of the apo protein + the mass of the pyridinium product adduct. A minor mass (20–25%) of 44 378 Da was also detected, consistent with a doubly modified PfCLK3 kinase domain. This implies that cross reactivity with non-catalytic lysine residues is possible using the ethynyl benzaldehyde functionality, although a minor product. […]
dialyzing the protein into a final buffer containing 20 mM HEPES pH 7.4, 150 mM NaCl, 1 […]
PfCLK3 kinase domain (residues 334–699 with a C-terminal TEV cleavage sequence and His6-tag) was cloned into pFastBac vector and expressed and purified from Sf21 insect cells.
Cells were infected using P2 BIICs at an MOI of 0.2 and left to express for 72 h. Harvested cells were lysed and centrifuged before purifying using IMAC and SEC in a final buffer containing 20 mM HEPES pH 7.4, 150 mM NaCl, 1 mM TCEP, and 1 mM MgCl2.
Protein Mass Spectrometry
For intact protein mass spectrometry, compounds were incubated with a 5-fold excess of compound in buffer containing 20 mM HEPES pH 7.4, 150 mM NaCl, 1 mM TCEP, and 1 mM MgCl 2. 5 μL of kinase domain (1 mg/mL) was added to 25 μL of buffer before 0.12 μL of compound in a 10 mM DMSO stock was added to start the incubation. Samples were incubated at room temperature for 4 hours before 10 μL alliquots were analysed by LC-MS.
Intact protein LC-MS experiments were performed on a Synapt G2 Q-ToF instrument equipped with electrospray ionisation (Waters Corp., Manchester, UK). LC separation was achieved using an Acquity UPLC equipped with a reverse phase C4 Aeris Widepore 50 × 2.1 mm HPLC column (Phenomenex, CA, USA) and a gradient of 5–95% acetonitrile (0.1% formic acid) over 10 minutes was employed. Data analysis was performed using MassLynx v4.1 and deconvolution was performed using MaxEnt. […]

recombinant PfCLK3 = recombinant PfCLK3 (Plasmodium falciparum, UniProt Q8IIL5); test: TR-FRET kinase assay at Km ATP; format: biochemical; details: 2 hour incubation, errors SD, N ≥ 3, * concentration response curve not complete
Chain of recombinant PfCLK3 (Q8IIL5 entry or part of it): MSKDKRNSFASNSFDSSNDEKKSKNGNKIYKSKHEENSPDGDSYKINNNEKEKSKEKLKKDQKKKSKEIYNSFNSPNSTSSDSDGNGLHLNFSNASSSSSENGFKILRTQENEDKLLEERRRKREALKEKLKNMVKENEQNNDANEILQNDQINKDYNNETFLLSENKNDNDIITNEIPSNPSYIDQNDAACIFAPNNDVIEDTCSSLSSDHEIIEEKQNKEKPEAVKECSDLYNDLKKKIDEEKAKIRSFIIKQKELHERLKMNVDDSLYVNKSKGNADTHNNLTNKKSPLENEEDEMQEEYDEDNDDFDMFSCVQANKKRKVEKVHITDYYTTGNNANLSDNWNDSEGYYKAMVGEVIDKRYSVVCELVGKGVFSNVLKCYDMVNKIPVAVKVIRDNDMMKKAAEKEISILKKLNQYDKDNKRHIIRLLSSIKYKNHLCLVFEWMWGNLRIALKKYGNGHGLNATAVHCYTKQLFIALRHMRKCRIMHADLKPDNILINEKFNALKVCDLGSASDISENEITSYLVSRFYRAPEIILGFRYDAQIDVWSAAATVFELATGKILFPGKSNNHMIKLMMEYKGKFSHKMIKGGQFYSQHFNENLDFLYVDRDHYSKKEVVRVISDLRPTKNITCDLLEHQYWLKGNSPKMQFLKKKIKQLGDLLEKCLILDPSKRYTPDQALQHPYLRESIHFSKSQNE
Method: All compounds were then evaluated against recombinant PfCLK3 using a TR-FRET kinase assay (Fig. 5). […]
Time Resolved Förster Resonance Energy Transfer (TR-FRET) Assay
Tr-FRET technology was used to determine kinase activity and Km ATP before profiling compounds. An 11-point half-log serial dilution of each test compound was prepared in 100% DMSO at 100X final test concentration. The dilution series were dispensed onto assay plates with liquid handling machinery using positive displacement. The final DMSO concentration in the assay was 1%. To obtain IC 50 values, full length recombinant PfCLK3 was prepared in 1X assay buffer (50 mM Hepes, 10 mM MgCl2, 1 mM EGTA, 0.01% Tween20, 2 mM TCEP) at a 2X concentration and incubated with compounds for 15 minutes at room temperature before addition of ULight-labelled peptide substrate (MBP) with Km ATP (at 2X concentration). The reaction was centrifuged and incubated for 2 hr at 37 °C. To stop the reaction, 1X Lance detection buffer was added with 1 nM Eu-labelled anti-MBP and 10 mM EDTA, and the reaction was incubated in the dark for 2 hr at room temperature to allow detection to take place. Plate output was read on a Pherastar FSX and data analysed in Graphpad Prism to a 4-parameter curve fit. […]

[3] = N ≥ 3, read-out: pEC50 (3D7) (converted)
[4] = pH 7.4, 1:5 protein to compound, 4 hours room temperature, compound 4 with C-terminal His-tag construct

Row | SMILES | EC50 ([1]; N ≥ 3, read-out: EC50 (3D7)) | EC50 [1, 3] | partial covalent bond formation, modification ([2]; imine adduct) | covalent adduct formation with PfCLK3 kinase domain [2] | Relative Ratio, assignment apo [2, 4] | Relative Ratio, assignment holo (singly modified) [2, 4] | IC50 (recombinant PfCLK3; IC50 (apparent), Km ATP (5 μM)) | IC50 (recombinant PfCLK3; pIC50, Km ATP (5 μM)) | doubly modified PfCLK3 kinase domain, minor mass abundance ([2]; 44 378 Da species) | Relative Ratio, assignment holo (doubly modified) ([2]; pH 7.4, 1:5 protein to compound, 4 hours room temperature)
1 | CCN(CC)Cc1ccc(OC)c(-c2cc3c(-c4ccc(O)c(C=O)c4)ccnc3[nH]2)c1 [Compound 4] | 6350 ± 2310 nM | 6310 nM | 32–60% | showed covalent adduct formation; also recorded: formed a covalent adduct with PfCLK3 | 40 | 60 | 16 ± 9 nM | 16.2 nM |  | 
2 | C#Cc1ccc(-c2c[nH]c3ncc(-c4cc(CN(CC)CC)ccc4OC)cc23)cc1C=O [Compound 9] | 4350 ± 500 nM | 4370 nM |  | showed covalent adduct formation; also recorded: formed a covalent adduct with PfCLK3 |  | 80 | 16 ± 4 nM | 16.6 nM | 20–25% and ~20% | 20
